Results taken from PMC11695783 (Frontiers in Pharmacology, 2024).
In brackets after ≈: the same amount, converted by molar mass. Several values for one entry are separate records, joined by “and”; a condition that tells them apart may be missing. Equal values may be shown once. Where a name gives a salt, the structure may show the parent alone.

Columns and labels:
[1] = system: Mycoplasma pneumoniae strain M129 (ATCC 29342); assay: Time-kill curves; type: cell-based; parameters: M. pneumoniae count in time-kill curve: unit not given here
Description: (§1) Mycoplasma pneumoniae strain M129 (ATCC 29342) was obtained from American Type Culture Collection (Manassas, VA, United States) and cultured at 37°C in the presence of 5% CO2 in the modified SP-4 liquid medium (pH 7.4) containing 2.1% (w/v) CM1166 mycoplasma broth base medium (Oxoid, Hants, United Kingdom), 20% (v/v) fetal bovine serum (FBS, Bioexplorer, CO, United States), 0.4% yeast extract (Oxoid), 0.55% (w/v) CMRL 1066 w/L-glutamine culture media powder (MyBioSource, San Diego, CA, United States), 1% D-glucose (Macklin) and 0.004% phenol red (Macklin). […] The solid medium is based on the above formula with the addition of 1% agar, and the characteristic fried egg-like colonies were used for experiments following incubation for 7 d on plates.
The tubes were incubated at 37°C in 5% CO2 for 72 h, and 200 µL of the culture was removed every 12 h for 10-fold serial dilutions. The diluted cultures were plated on plates for further culture and counted after 7 d. The experiment was repeated three times.

[2] = system: Mycoplasma pneumoniae strain M129 (ATCC 29342); assay: Susceptibility assay (broth microdilution MIC, MBC); type: cell-based
Description: as §1
The broth microdilution MIC procedure was performed according to standardized methods for microdilution susceptibility testing of mycoplasma species ([Waites et al., 2012]). […] The concentration of organisms should be determined to approximately 10^6 CFU/mL prior to inoculation into 96-well plates. Due to the action of phenol red, the acidic metabolites of microbial growth can turn the medium yellow. […] The MBC assays were performed based on MICs following endpoint reading and the liquid in the high-concentration wells was removed for bacterial counting.

[3] = system: Mycoplasma pneumoniae-infected mice (lung tissue); assay: Histopathological assessment of lung tissue (HPS, response and recovery rates) in M. pneumoniae-infected mice; type: in vivo, BALB/c mice; parameters: HPS value (mean) / HPS: scale not given here; conditions: tiamulin 40 mg/kg PO (fumarate soluble powder); for HPS: individual mice
Description: (§2) Adult BALB/c mice (20–22 g) were divided into a control group, a positive group, and compound 16C groups at low (20 mg/kg), medium (40 mg/kg), and high-dose (80 mg/kg) levels and oral and intramuscular tiamulin treatment groups (40 mg/kg). We formulated the above dose range based on the dose at which tiamulin was approved for injection (10–20 mg/kg) and the dose previously reported (45 mg/kg) ([EMA, 1999]; [Xiao et al., 2016]). In summary, we selected similar doses for compound 16C in vivo study. 40 mg/kg was used as an intermediate value, one-half of it as a low dose, and two times of it as a high dose. To prepare the challenge solution, logarithmic phase culture suspensions were centrifuged at 1700 g for 10 min, and the pellets were suspended in sterile PBS to obtain 1 × 10^9 CFU/mL. Before the challenge, mice were anesthetized with tribromoethanol (250 mg/kg, IP). Mice in the control groups were intratracheally inoculated with sterile PBS, whereas mice in the other groups were intratracheally challenged with 50 μL (1 × 10^9 CFU/mL) M. pneumoniae suspension once a day for 3 days. Compound 16C and tiamulin (tiamulin-IM group) dissolved using the method mentioned in pharmacokinetic studies, and the tiamulin fumarate soluble powder was dissolved in ddH2O for oral administration. After the final challenge, antibiotics were administered at low, medium, and high-dose levels (see above) at 10 a.m. and 10 p.m. daily for 4 consecutive days. Normal saline containing 5% DMSO and 5% Tween-80 was administered as control and positive groups by thigh intramuscular injection. To compare the efficacy of compound 16C and tiamulin under the same route of administration, we used the original tiamulin for intramuscular administration in the same formulation. On the other hand, tiamulin fumarate soluble powder, approved for oral administration to treat animal mycoplasma diseases in China, was administered to mice by gavage. Based on a clinical study of lefamulin in community-acquired bacterial pneumonia (CABP), subjects were administered twice a day and the 96 ± 24 h of starting treatment was an essential point for early clinical response (ECR) ([Paukner et al., 2022]). We therefore stopped treatment at 96 h and sampled at 192 h to explore whether the disease worsened after cessation of treatment. Bronchoalveolar lavage fluid (BALF) and lungs were collected at 0, 96, 192 h (Samples of 0 h were collected before starting treatment, and mice were fed ad libitum without drug treatment during 96–192 h) after the first dose, BALF for cytokine and cytological analysis and lung for histopathological evaluation.
Lung tissues were collected at 0, 96, and 192 h following drug administration. Lungs were collected from 6 mice in each group at 96 h and 13–15 mice in each group at 192 h. In addition, the lungs of 8 untreated infected mice were taken at 0 h as initial controls. Lung tissues were fixed in 4% paraformaldehyde, and whole-mount sections of paraffin-embedded lungs were stained with hematoxylin and eosin (H&E). The histopathologic score (HPS) was determined according to published protocols by a single pathologist who was unaware of the treatment status and groups of the animals ([Cimolai et al., 1992]). The HPS was based on individual grading of peribronchiolar/bronchial infiltrate, bronchiolar/bronchial luminal exudate, perivascular infiltrate, and parenchymal pneumoniae.

CXCL1 = CXCL1 in BALF of M. pneumoniae-infected mice (ELISA); type: in vivo, BALB/c mice; conditions: tiamulin 40 mg/kg PO (fumarate soluble powder), individual mice
Description: as §2
(§3) Bronchoalveolar lavage was performed according to a standardized method ([Van Hoecke et al., 2017]). BALF was obtained following infusion of 0.5 mL PBS via tracheal cannulation into the lung twice (total 1 mL), and 200 µL was used for mycoplasma counts. The remaining BALF was centrifuged at 300 g for 10 min to separate the debris. The supernatants were stored at −80°C, and the debris was resuspended in the same volume of PBS containing red blood cell lysis buffer. A hemocytometer was used to count total cell numbers in BALF, and cell smears (Diff-Quik staining) were prepared to calculate the percentages of neutrophils, macrophages, and lymphocytes. IFN-γ, TNF-α, and CXCL1 levels in BALF samples were assessed using commercial ELISA kits using guidelines recommended by the manufacturer (Elabscience, Wuhan, China). Parallel data for each experimental group at each time point were obtained from six different mice.

IFN-γ = IFN-γ in BALF of M. pneumoniae-infected mice (ELISA); type: in vivo, BALB/c mice; conditions: tiamulin 40 mg/kg PO (fumarate soluble powder); for IFN-γ in BALF (AV): group AV; for IFN-γ in BALF: individual mice
Description: as §2, §3

TNF-α = TNF-α in BALF of M. pneumoniae-infected mice (ELISA); type: in vivo, BALB/c mice; conditions: tiamulin 40 mg/kg PO (fumarate soluble powder), individual mice
Description: as §2, §3

Mycoplasma pneumoniae = assay: In vivo pharmacodynamic study: Mycoplasma pneumoniae loads in BALF of infected mice; parameters: species or system BALB/c mice; conditions: tiamulin 40 mg/kg PO (fumarate soluble powder); for MPcounts in BALF (AV): group AV; for MPcounts in BALF: individual mice
Description: as §2, §3

## CC[C@H]1OC(=O)[C@H](C)[C@@H](O[C@H]2C[C@@](C)(OC)[C@@H](O)[C@H](C)O2)[C@H](C)[C@@H](O[C@@H]2O[C@H](C)C[C@H](N(C)C)[C@H]2O)[C@](C)(O)C[C@@H](C)C(=O)[C@H](C)[C@@H](O)[C@]1(C)O [erythromycin]
[1]; 1×MIC, time 0
  M. pneumoniae count in time-kill curve: 7.138
[1]; 1×MIC, time 12
  M. pneumoniae count in time-kill curve: 6.145
[1]; 1×MIC, time 24
  M. pneumoniae count in time-kill curve: 6.32
[1]; 1×MIC, time 36
  M. pneumoniae count in time-kill curve: 5.109
[1]; 1×MIC, time 48
  M. pneumoniae count in time-kill curve: 4.8395
[1]; 1×MIC, time 60
  M. pneumoniae count in time-kill curve: 5.816
[1]; 1×MIC, time 72
  M. pneumoniae count in time-kill curve: 6.113
[1]; 2 × MIC, 72 h exposure
  decrease of bacterial load: 3.61 log10 CFU/mL
[1]; 2×MIC, time 0
  M. pneumoniae count in time-kill curve: 7.138
[1]; 2×MIC, time 12
  M. pneumoniae count in time-kill curve: 6.411
[1]; 2×MIC, time 24
  M. pneumoniae count in time-kill curve: 6.275
[1]; 2×MIC, time 36
  M. pneumoniae count in time-kill curve: 4.753
[1]; 2×MIC, time 48
  M. pneumoniae count in time-kill curve: 4.288
[1]; 2×MIC, time 60
  M. pneumoniae count in time-kill curve: 4.145
[1]; 2×MIC, time 72
  M. pneumoniae count in time-kill curve: 3.53
[1]; 4×MIC, time 0
  M. pneumoniae count in time-kill curve: 7.138
[1]; 4×MIC, time 12
  M. pneumoniae count in time-kill curve: 6.078
[1]; 4×MIC, time 24
  M. pneumoniae count in time-kill curve: 6.148
[1]; 4×MIC, time 36
  M. pneumoniae count in time-kill curve: 4.203
[1]; 4×MIC, time 48
  M. pneumoniae count in time-kill curve: 3.916
[1]; 4×MIC, time 60
  M. pneumoniae count in time-kill curve: 3.913
[1]; 4×MIC, time 72
  M. pneumoniae count in time-kill curve: 3.415
[1]; 8×MIC, time 0
  M. pneumoniae count in time-kill curve: 7.138
[1]; 8×MIC, time 12
  M. pneumoniae count in time-kill curve: 6.379
[1]; 8×MIC, time 24
  M. pneumoniae count in time-kill curve: 6.145
[1]; 8×MIC, time 36
  M. pneumoniae count in time-kill curve: 4.163
[1]; 8×MIC, time 48
  M. pneumoniae count in time-kill curve: 3.977
[1]; 8×MIC, time 60
  M. pneumoniae count in time-kill curve: 3.326
[1]; 8×MIC, time 72
  M. pneumoniae count in time-kill curve: 3.283
[1]; 16×MIC, time 0
  M. pneumoniae count in time-kill curve: 7.138
[1]; 16×MIC, time 12
  M. pneumoniae count in time-kill curve: 6.732
[1]; 16×MIC, time 24
  M. pneumoniae count in time-kill curve: 6.1338
[1]; 16×MIC, time 36
  M. pneumoniae count in time-kill curve: 3.93
[1]; 16×MIC, time 48
  M. pneumoniae count in time-kill curve: 3.332
[1]; 16×MIC, time 60
  M. pneumoniae count in time-kill curve: 3.123
[1]; 16×MIC, time 72
  M. pneumoniae count in time-kill curve: 3.438
[1]; 32×MIC, time 0
  M. pneumoniae count in time-kill curve: 7.138
[1]; 32×MIC, time 12
  M. pneumoniae count in time-kill curve: 6.133
[1]; 32×MIC, time 24
  M. pneumoniae count in time-kill curve: 5.307
[1]; 32×MIC, time 36
  M. pneumoniae count in time-kill curve: 3.588
[1]; 32×MIC, time 48
  M. pneumoniae count in time-kill curve: 3.619
[1]; 32×MIC, time 60
  M. pneumoniae count in time-kill curve: 3.2228
[1]; 32×MIC, time 72
  M. pneumoniae count in time-kill curve: 3.181
[1]; 64×MIC, time 0
  M. pneumoniae count in time-kill curve: 7.138
[1]; 64×MIC, time 12
  M. pneumoniae count in time-kill curve: 6.741
[1]; 64×MIC, time 24
  M. pneumoniae count in time-kill curve: 5.886
[1]; 64×MIC, time 36
  M. pneumoniae count in time-kill curve: 3.638
[1]; 64×MIC, time 48
  M. pneumoniae count in time-kill curve: 3.377
[1]; 64×MIC, time 60
  M. pneumoniae count in time-kill curve: 2.841
[1]; 64×MIC, time 72
  M. pneumoniae count in time-kill curve: 2.68
[1]; static time-kill, 72 h
  concentration at which bactericidal effect was achieved: 2 × MIC
[2]; M. pneumoniae strain M129, ≈96 h, read-out: MIC
  MIC: 0.016 µg/mL (≈ 0.0218 µM)
[2]; M. pneumoniae strain M129, read-out: MBC
  MBC: 0.032 µg/mL (≈ 0.0436 µM)

## C=C[C@]1(C)C[C@@H](OC(=O)CSCCN(CC)CC)[C@]2(C)[C@H](C)CC[C@]3(CCC(=O)[C@H]32)[C@@H](C)[C@@H]1O [Tiamulin-PO, Tiamulin fumarate, reference compound]
[3]; 96 h
  HPS: 2.5 and 4 and 1 and 3
[3]; 192 h
  HPS: 1.5 and 2 and 1 and 8 and 0 and 3 and 4
[3]; from HPS at 192 h
  Recovery: 6.67%
  Response: 86.67%
CXCL1; 96 h
  CXCL1 in BALF: 47.9583 pg/mL and 40.7995 pg/mL and 44.8333 pg/mL and 37.1973 pg/mL and 31.7608 pg/mL and 43.0428 pg/mL
CXCL1; 192 h
  CXCL1 in BALF: 52.4056 pg/mL and 49.740 pg/mL and 60.3659 pg/mL and 36.7459 pg/mL and 45.7272 pg/mL
IFN-γ; 96 h
  IFN-γ in BALF (AV): 32.2599 pg/mL
  IFN-γ in BALF: 34.8842 pg/mL and 17.3704 pg/mL and 63.2217 pg/mL and 29.659 pg/mL and 25.3118 pg/mL and 23.1122 pg/mL
IFN-γ; 192 h
  IFN-γ in BALF (AV): 34.0801 pg/mL
  IFN-γ in BALF: 37.2747 pg/mL and 51.8224 pg/mL and 27.2214 pg/mL and 28.4425 pg/mL and 30.8711 pg/mL and 28.8485 pg/mL
TNF-α; 96 h
  TNF-α in BALF: 13.0598 pg/mL and 17.5743 pg/mL and 24.463 pg/mL and 20.81 pg/mL and 21.310 pg/mL and 10.7269 pg/mL
TNF-α; 192 h
  TNF-α in BALF: 8.7059 pg/mL and 12.3017 pg/mL and 9.398 pg/mL and 5.239 pg/mL and 5.021 pg/mL and 15.24 pg/mL
Mycoplasma pneumoniae; 96 h
  MPcounts in BALF (AV): 4.578 Log10CFU/mL
  MPcounts in BALF: 4.372 Log10CFU/mL and 4.349 Log10CFU/mL and 5.68 Log10CFU/mL and 4.443 Log10CFU/mL and 4.274 Log10CFU/mL and 4.354 Log10CFU/mL
Mycoplasma pneumoniae; 192 h
  MPcounts in BALF (AV): 4.3846 Log10CFU/mL
  MPcounts in BALF: 4.0302 Log10CFU/mL and 4.805 Log10CFU/mL and 4.331 Log10CFU/mL and 4.53 Log10CFU/mL and 4.4765 Log10CFU/mL and 4.136 Log10CFU/mL
